In ChEMBL document CHEMBL3603736, “3-Substituted pyrazoles and 4-substituted triazoles as inhibitors of human 15-lipoxygenase-1” (Bioorg Med Chem Lett, 2015):
Converted amounts (≈) assume the structure as drawn.

Tests used:
[1] = molecular target: CYP2E1 (Homo sapiens, UniProt P05181); assay: Inhibition of human CYP2E1 at 10 uM; assay type: ADME
[2] = molecular target: Polyunsaturated fatty acid 5-lipoxygenase (Homo sapiens) (UniProt P09917); assay: Inhibition of 5-LOX in calcium ionophore and arachidonic acid-stimulated purified human granulocytes assessed as reduction in LTB4 formation at 10 uM by HPLC-UV spectroscopy
[3] = molecular target: Cytochrome P450 2C9 (Homo sapiens, UniProt P11712); assay: Inhibition of human CYP2C9; assay type: ADME; details: read-out: IC50
[4] = system: Escherichia coli; assay: Genotoxicity in Escherichia coli by SOS/umu test; assay type: toxicity, organism-based
[5] = molecular target: CYP2B6 (Homo sapiens, UniProt P20813); assay: Inhibition of human CYP2B6 at 10 uM; assay type: ADME
[6] = system: Caco-2; assay: Permeability in human Caco2 cells; assay type: ADME, cell-based
[7] = molecular target: T1, Cytochrome P450 2C8 (Homo sapiens, UniProt P10632); assay: Inhibition of human CYP2C8 at 10 uM; assay type: ADME
[8] = molecular target: T2, Prostaglandin G/H synthase 2 (Homo sapiens) (UniProt P35354); assay: Inhibition of human recombinant COX2 assessed as reduction in PGH2-derived PGF2alpha production at 10 uM by enzyme immunoassay
T2 sequence (whole entry): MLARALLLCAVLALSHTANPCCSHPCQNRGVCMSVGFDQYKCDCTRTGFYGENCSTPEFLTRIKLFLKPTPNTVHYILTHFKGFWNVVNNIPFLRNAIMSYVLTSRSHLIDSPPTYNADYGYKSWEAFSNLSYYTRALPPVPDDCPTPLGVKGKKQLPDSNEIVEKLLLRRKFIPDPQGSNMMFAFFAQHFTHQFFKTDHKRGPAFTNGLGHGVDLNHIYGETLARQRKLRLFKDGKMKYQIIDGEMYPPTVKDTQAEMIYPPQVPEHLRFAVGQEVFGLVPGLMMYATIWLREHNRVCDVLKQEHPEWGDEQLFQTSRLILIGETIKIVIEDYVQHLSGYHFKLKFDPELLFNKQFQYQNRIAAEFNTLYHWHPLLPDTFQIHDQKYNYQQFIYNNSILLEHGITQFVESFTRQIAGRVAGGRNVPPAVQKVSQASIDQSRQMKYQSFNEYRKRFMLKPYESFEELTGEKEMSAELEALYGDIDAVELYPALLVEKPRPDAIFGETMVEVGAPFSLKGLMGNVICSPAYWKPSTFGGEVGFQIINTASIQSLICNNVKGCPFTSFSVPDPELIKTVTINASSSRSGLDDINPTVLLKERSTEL

[9] = Aqueous solubility in pH 7.4 buffer; assay type: physicochemical
[10] = molecular target: Cytochrome P450 2D6 (Homo sapiens, UniProt P10635); assay: Inhibition of human CYP2D6; assay type: ADME
[11] = Intrinsic clearance in human microsomes; assay type: ADME, Microsome
[12] = Aqueous solubility in pH 2.0 buffer; assay type: physicochemical
[13] = Protein binding in plasma (unknown origin); assay type: ADME, cell-free; details: read-out: PPB (converted)
[14] = molecular target: Polyunsaturated fatty acid lipoxygenase ALOX15B (Homo sapiens, UniProt O15296); assay: Inhibition of human 15-LOX-2 expressed in Sf9 cells assessed as reduction in conversion of arachidonic acid to 15-HETE pre-incubated 5 min before arachidonic acid substrate addition by HPLC-UV spectroscopy
[15] = molecular target: Cytochrome P450 2C19 (Homo sapiens, UniProt P33261); assay: Inhibition of human CYP2C19; assay type: ADME; details: read-out: IC50
[16] = molecular target: Cytochrome P450 1A2 (Homo sapiens, UniProt P05177); assay: Inhibition of human CYP1A2; assay type: ADME
[17] = Half life in human microsomes; assay type: ADME, Microsome
[18] = molecular target: T3, Prostaglandin G/H synthase 1 (Ovis aries) (UniProt P05979); assay: Inhibition of ovine COX1 assessed as reduction in PGH2-derived PGF2alpha production at 10 uM by enzyme immunoassay
T3 sequence (whole entry): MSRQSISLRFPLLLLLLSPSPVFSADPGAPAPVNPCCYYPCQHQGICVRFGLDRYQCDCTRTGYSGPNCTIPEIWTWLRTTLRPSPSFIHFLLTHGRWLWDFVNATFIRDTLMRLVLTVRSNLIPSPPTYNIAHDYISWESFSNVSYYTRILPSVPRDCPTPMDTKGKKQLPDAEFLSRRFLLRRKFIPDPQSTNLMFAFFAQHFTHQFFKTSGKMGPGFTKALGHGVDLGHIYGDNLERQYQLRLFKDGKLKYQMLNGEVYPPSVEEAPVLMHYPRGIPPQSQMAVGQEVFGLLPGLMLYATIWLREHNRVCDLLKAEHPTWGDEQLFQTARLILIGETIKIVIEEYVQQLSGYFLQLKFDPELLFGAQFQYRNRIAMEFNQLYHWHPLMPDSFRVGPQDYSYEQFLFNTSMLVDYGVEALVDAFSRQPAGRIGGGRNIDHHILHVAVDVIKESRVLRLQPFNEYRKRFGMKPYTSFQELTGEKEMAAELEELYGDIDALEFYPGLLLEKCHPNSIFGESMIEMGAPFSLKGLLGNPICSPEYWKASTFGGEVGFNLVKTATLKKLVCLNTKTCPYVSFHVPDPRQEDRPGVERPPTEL

[19] = molecular target: Polyunsaturated fatty acid lipoxygenase ALOX12 (Homo sapiens) (UniProt P18054); assay: Inhibition of human platelet 12-LOX assessed as reduction in conversion of arachidonic acid to […] at 10 uM pre-incubated 5 min before arachidonic acid substrate addition by HPLC-UV spectroscopy
[20] = molecular target: Arachidonate 12-lipoxygenase (Rattus norvegicus, UniProt Q02759); assay: (§1) Inhibition of rat 15-LOX-1 expressed in Sf9 cells assessed as reduction in conversion of arachidonic acid to 15-HETE pre-incubated 5 min before arachidonic acid substrate addition by HPLC-UV spectroscopy
[21] = molecular target: Arachidonate 12-lipoxygenase (Rattus norvegicus) (UniProt Q02759); assay: as §1
[22] = Aqueous solubility in pH 10 buffer; assay type: physicochemical
[23] = molecular target: Arachidonate 12-lipoxygenase (Sus scrofa, UniProt P16469); assay: Inhibition of pig 15-LOX-1 expressed in Sf9 cells assessed as reduction in conversion of arachidonic acid to 15-HETE pre-incubated 5 min before arachidonic acid substrate addition by HPLC-UV spectroscopy
[24] = molecular target: Cytochrome P450 3A4 (Homo sapiens, UniProt P08684); assay: Inhibition of human CYP3A4; assay type: ADME; details: read-out: IC50
[25] = molecular target: T1, Cytochrome P450 2C8; assay: Inhibition of human CYP2C8; assay type: ADME
[26] = Inhibition of dog 15-LOX-1 expressed in Sf9 cells assessed as reduction in conversion of arachidonic acid to 15-HETE pre-incubated 5 min before arachidonic acid substrate addition by HPLC-UV spectroscopy; parameters: species or system Canis lupus familiaris
[27] = molecular target: Voltage-gated inwardly rectifying potassium channel KCNH2 (Homo sapiens, UniProt Q12809); assay: Inhibition of human ERG

T1 sequence (P10632 whole entry): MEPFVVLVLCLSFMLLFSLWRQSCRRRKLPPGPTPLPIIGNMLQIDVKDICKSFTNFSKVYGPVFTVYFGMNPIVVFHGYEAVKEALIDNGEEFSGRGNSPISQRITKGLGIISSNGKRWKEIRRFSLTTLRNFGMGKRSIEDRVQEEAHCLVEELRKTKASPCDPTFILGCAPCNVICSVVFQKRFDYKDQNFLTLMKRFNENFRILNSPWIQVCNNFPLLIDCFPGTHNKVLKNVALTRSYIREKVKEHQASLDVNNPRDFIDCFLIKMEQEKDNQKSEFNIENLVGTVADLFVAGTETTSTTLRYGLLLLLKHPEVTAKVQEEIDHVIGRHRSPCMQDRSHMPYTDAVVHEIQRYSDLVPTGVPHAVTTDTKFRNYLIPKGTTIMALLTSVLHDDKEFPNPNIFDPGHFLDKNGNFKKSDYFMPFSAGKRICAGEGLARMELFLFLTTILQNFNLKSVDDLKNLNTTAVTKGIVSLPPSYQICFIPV
Polyunsaturated fatty acid 5-lipoxygenase (Homo sapiens), sequence (P09917 whole entry): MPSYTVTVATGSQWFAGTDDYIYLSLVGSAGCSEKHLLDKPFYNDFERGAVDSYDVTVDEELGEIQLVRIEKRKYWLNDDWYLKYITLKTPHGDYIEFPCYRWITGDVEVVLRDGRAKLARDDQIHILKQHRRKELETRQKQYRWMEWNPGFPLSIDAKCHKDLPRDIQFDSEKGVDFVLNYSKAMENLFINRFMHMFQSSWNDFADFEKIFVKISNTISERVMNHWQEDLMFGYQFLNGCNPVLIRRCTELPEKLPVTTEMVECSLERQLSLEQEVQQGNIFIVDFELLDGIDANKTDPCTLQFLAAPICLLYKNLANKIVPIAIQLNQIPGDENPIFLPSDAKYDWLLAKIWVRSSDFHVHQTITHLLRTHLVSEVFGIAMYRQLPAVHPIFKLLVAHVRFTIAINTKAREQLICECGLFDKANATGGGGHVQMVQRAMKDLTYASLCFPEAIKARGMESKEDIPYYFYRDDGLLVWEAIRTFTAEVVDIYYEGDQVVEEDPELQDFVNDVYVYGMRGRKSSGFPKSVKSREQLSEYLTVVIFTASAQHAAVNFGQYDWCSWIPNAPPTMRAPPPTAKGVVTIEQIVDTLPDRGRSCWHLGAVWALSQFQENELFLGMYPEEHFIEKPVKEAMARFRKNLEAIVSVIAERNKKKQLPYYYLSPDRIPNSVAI
Cytochrome P450 3A4, sequence (P08684 whole entry): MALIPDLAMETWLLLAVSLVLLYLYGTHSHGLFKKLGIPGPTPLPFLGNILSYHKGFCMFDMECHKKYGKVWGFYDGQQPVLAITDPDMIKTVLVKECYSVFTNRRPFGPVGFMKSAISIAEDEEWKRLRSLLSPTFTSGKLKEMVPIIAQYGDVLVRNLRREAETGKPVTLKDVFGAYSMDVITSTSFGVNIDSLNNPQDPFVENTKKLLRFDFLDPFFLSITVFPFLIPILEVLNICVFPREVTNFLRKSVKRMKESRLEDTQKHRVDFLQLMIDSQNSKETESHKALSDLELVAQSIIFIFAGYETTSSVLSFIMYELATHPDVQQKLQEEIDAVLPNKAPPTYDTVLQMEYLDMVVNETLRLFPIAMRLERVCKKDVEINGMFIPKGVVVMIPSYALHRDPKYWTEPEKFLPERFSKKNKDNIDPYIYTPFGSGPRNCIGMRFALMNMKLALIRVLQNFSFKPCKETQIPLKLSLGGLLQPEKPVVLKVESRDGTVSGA
CYP2E1, sequence (P05181 whole entry): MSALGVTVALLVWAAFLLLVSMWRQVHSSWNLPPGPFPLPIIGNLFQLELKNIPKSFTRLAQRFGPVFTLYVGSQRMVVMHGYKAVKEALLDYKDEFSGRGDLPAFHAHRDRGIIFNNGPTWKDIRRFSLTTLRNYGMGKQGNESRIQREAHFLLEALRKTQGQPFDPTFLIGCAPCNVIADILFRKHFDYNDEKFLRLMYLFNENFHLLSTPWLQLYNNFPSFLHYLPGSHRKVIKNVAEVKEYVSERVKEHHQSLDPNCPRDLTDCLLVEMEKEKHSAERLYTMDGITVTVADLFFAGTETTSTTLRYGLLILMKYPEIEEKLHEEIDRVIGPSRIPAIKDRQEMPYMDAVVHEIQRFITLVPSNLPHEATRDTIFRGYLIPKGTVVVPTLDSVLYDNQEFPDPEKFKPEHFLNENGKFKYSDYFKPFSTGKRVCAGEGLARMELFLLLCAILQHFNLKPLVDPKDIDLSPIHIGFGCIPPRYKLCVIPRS
Polyunsaturated fatty acid lipoxygenase ALOX12 (Homo sapiens), sequence (P18054 whole entry): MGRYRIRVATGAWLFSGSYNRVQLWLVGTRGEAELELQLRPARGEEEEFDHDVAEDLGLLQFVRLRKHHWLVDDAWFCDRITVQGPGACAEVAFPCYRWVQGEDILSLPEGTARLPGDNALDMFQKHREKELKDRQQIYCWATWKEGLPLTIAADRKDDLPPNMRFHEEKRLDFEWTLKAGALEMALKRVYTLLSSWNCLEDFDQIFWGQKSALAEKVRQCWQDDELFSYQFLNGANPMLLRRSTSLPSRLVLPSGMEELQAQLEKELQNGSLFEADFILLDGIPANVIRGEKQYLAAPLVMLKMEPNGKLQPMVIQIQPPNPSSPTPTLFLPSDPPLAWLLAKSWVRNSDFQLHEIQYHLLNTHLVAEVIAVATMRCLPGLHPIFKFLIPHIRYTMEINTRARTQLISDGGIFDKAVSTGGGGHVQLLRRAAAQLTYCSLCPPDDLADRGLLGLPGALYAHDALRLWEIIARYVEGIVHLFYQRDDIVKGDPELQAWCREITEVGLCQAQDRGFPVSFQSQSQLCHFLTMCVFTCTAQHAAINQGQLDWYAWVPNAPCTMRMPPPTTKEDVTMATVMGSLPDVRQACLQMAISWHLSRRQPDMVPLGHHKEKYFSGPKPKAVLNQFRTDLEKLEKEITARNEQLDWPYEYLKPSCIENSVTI
Cytochrome P450 2C9, sequence (P11712 whole entry): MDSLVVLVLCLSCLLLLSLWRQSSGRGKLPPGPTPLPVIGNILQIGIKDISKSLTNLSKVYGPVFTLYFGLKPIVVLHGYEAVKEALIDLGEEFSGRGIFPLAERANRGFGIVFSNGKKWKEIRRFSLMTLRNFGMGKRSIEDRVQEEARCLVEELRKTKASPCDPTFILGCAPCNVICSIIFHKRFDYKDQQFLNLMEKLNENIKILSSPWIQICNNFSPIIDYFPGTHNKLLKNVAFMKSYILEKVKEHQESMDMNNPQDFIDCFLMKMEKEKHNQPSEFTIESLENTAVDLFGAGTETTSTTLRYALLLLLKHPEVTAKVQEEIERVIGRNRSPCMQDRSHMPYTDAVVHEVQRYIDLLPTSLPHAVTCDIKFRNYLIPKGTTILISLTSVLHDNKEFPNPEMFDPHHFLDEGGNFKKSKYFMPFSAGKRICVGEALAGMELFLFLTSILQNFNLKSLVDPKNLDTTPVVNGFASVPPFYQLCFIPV
Cytochrome P450 1A2, sequence (P05177 whole entry): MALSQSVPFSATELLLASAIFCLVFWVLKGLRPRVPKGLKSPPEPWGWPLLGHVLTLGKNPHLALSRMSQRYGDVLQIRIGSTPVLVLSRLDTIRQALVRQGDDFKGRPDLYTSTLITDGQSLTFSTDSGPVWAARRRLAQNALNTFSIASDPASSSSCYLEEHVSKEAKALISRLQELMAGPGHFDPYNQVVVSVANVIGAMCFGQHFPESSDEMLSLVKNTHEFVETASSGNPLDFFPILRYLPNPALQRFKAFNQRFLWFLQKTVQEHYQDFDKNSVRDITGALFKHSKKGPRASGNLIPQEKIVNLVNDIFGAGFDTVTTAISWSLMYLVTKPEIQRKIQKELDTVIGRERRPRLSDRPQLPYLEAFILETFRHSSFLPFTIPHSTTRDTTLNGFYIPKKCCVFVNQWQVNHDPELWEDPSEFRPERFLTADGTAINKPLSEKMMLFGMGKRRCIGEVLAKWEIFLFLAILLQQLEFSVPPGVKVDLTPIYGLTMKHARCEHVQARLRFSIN
CYP2B6, sequence (P20813 whole entry): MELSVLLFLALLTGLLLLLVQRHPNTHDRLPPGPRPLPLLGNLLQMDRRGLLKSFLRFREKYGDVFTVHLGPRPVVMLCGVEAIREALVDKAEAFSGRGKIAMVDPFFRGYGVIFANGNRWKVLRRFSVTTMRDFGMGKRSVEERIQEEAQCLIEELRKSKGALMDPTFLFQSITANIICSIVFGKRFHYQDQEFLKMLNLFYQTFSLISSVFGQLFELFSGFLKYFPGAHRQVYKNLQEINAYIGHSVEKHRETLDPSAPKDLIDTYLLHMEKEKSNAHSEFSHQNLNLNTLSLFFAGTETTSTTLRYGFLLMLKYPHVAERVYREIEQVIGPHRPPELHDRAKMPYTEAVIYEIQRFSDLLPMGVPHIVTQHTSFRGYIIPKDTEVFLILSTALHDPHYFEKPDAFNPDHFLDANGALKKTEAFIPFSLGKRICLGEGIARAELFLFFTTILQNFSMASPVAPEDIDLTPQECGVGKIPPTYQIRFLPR
Arachidonate 12-lipoxygenase (Sus scrofa, UniProt P16469), sequence (P16469 whole entry): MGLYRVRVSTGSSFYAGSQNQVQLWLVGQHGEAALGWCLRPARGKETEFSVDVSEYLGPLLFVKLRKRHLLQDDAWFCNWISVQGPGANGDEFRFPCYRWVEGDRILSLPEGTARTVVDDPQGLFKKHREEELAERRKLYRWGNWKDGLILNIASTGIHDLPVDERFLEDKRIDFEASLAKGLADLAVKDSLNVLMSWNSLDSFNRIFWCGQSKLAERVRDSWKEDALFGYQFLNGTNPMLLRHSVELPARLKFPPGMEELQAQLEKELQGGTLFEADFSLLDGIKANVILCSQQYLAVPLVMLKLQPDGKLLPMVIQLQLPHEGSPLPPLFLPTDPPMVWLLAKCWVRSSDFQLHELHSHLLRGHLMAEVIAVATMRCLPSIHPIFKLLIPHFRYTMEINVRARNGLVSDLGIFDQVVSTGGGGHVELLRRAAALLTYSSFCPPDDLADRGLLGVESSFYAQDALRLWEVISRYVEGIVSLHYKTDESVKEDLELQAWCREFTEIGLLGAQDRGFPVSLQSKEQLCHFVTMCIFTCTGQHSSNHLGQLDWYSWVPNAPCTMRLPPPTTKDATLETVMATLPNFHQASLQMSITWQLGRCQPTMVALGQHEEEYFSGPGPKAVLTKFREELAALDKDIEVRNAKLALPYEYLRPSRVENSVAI

## O=C(Nc1ccc(Cl)cc1Cl)c1cn[nH]n1
[1]
  inhibition at 10 µM: 10%
[2]
  inhibition: < 50%
[3]
  IC50: 500 nM
[4]
  Activity: Non-toxic
[5]
  inhibition at 10 µM: 93%
[6]
  permeability: permeable
[7]
  inhibition (INH): Not Active
[8]
  inhibition: 10%
[9]
  solubility: 83.6 µg/mL (≈ 325 µM)
[10]
  IC50: > 100000 nM
[11]
  microsomal CLint: < 1 µL/min/mg
[12]
  solubility: 24.3 µg/mL (≈ 94.5 µM)
[13]
  fraction unbound: < 0.01
[14]
  IC50: Not Active
[15]
  IC50: 1400 nM
[16]
  IC50: 21600 nM
[17]
  half-life: > 1.67 h
[18]
  inhibition: 4%
[19]
  inhibition: 42%
[20]
  IC50: 24000 nM
[21]
  Imax: 79%
[22]
  solubility: > 287 µg/mL
[23]
  IC50: 78 nM
[24]
  IC50: 58100 nM
[25]
  IC50: Not Active
[26]
  IC50: 2400 nM
[27]
  inhibition (INH): Not Active
